Assay results reported in patent US20220267352A1, “RAPAMYCIN ANALOGS AND USES THEREOF” (Anakuria Therapeutics, Inc., priority 2021, published 2022).

Key:
Type in all cases: cell-based
[1] = tested on: pS6K1 T389 and pAkt S473 in PC3 cells; experiment: Western blot based pS6K1 and pAKT assay at 24 and 48 hour timepoints
Description: Example 57: Western Blot Based pS6K1 and pAKT Assay at 24 and 48 Hour Timepoints
Assay Protocol: • 1. Seed six well plate with 500,000 PC3 cells per well and incubate for 20˜24 hour. • 2. Add compounds into the cell plate. Incubate for 24 to 48 hours. • 4. Plate is placed on ice and the media is removed via aspiration. The wells are washed with 1 mL of 1x PBS and then fully aspirated. • 5. 110 μL of 1% Triton Lysis Buffer is added and each well is scraped vigorously. • 6. Cell homogenates are transferred to 1.5 mL eppendorf tubes on ice and spun down at 4° C. for 10 minutes at 10,000 rpm. • 7. Protein concentration of resulting cell lysates were quantified utilizing a Bradford assay and the samples run analyzed via Western blot on 4-12% Bis/Tris gels with 1×MES buffer. • 8. The gels were transferred onto membranes at 50V for 100 minutes, blocked with Odyssey Blocking buffer for 30 minutes then incubated overnight with primary antibody (pS6K1 T389 Rabbit or pAkt S473 Rabbit) overnight at 4° C. on a rotator. • 9. The membranes were washed 3× with TBS-T with a 5 minute incubation between each wash then incubated with secondary antibody (LiCor IRDye 800 Donkey Anti Rabbit) for at least 30 minutes. • 10. The membranes were washed 3× with TBS-T with a 5 minute incubation between each wash. • 11. The gels were then incubated for 5 minutes with PBS at room temperature then imaged using a Li-Cor.
Compounds that are not selective by comparing pS6K1 and pAKT IC50 by kinase assays are indicated by “NO” in the “mTORC1 selective @ 90 min” column of Table 4. […] Compounds that are not selective at the 24 hrs mark are indicated by “NO” in the “mTORC1 selective @ 24 hrs” column of Table 4. “N/A” stands for “not assayed” and “N/C” stands for “not calculated”.

[2] = tested on: p-p70 S6 Kinase (Thr389) in MCF-7 cells; experiment: AlphaLISA Ultra pS6K1 assay; conditions: Homo sapiens, 1.5 h; MCF7 cells, 90 min
Procedure, shortened: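 Phospho-S6K1 (Thr389) quantified by AlphaLISA Ultra read-out (2 h acceptor, then 2 h donor beads) in lysates of MCF-7 cells. Cells were plated 20–24 h before, refed 2 h, exposed to compounds for 90 min at 0.5% final DMSO, and lysates stored at −80 °C.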

[3] = tested on: p-Akt 1/2/3 (Ser473) in MCF-7 cells; experiment: AlphaLISA Ultra pAKT assay; conditions: Homo sapiens, 1.5 h; MCF7 cells, 90 min
Procedure, shortened: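 MCF-7 cells (16,000˜20,000 per well in 36 μL medium) were seeded in Corning 3701 plates for 20˜24 hour, refreshed with new medium for 90 minutes, then given 12 μL of 4× compound (0.5% final DMSO). Cells were lysed with 2× lysis buffer, and lysate was analyzed by AlphaLISA Ultra pAKT using acceptor and donor beads, read on an EnSpire reader.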

mTORC1 over mTORC2 = mTORC1 over mTORC2 selectivity by comparing pS6K1 and pAKT IC50; conditions: by comparing pS6K1 and pAKT IC50, 90 min
Procedure, shortened: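 MCF-7 cells were treated with compounds (0.5% final DMSO) for 90 minutes in one protocol and 2 hours in the other, then lysed. Phospho-signal in lysates was read by bead-based donor/acceptor proximity assay. pS6K1 and pAKT IC50 values were compared to judge mTORC1 over mTORC2 selectivity, at 90 min and at 24 hrs.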

| Compound | IC50 [2] [nM] | IC50 [3] [nM] | mTORC1 selective @ 24 hrs [1] | mTORC1 selective @ 90 min (mTORC1 over mTORC2) |
| --- | --- | --- | --- | --- |
| CO[C@@H]1C[C@H](C[C@@H](C)[C@@H]2CC(=O)[C@H](C)/C=C(\C)[C@@H](O)[C@@H](OC)C(=O)[C@H](C)C[C@H](C)/C=C/C=C/C=C(\C)[C@@H](OCCOC3COC3)C[C@@H]3CC[C@@H](C)[C@@](O)(O3)C(=O)C(=O)N3CCCC[C@H]3C(=O)O2)CC[C@H]1OC(=O)N(C)CCN1CCOCC1 [I-18, [(43S,45R,47R)-4-[(2R)-2-[(28E,30E,32E,33E,39R,40S,41R,42R,44S,46S,48S,49S,51R,52R,62R)-51,62-dihydroxy-52-methoxy-39,40,41,42,53,54-hexamethyl-48-[2-(oxetan-3-yloxy)ethoxy]-55,56,57,58,59-pentaoxo-76,77-dioxa-64-azatricyclohexatriaconta-28,30,32(53),33(54)-tetraen-49-yl]propyl]-47-methoxy-45-cyclohexyl] N-methyl-N-(2-morpholinoethyl)carbamate] | – | – | Yes | – |
| COCCO[C@@H]1CC[C@@H](C[C@@H](C)[C@@H]2CC(=O)[C@H](C)/C=C(\C)[C@@H](O)[C@@H](OC)C(=O)[C@H](C)C[C@H](C)/C=C/C=C/C=C(\C)[C@@H](OCc3cnccn3)C[C@@H]3CC[C@@H](C)[C@@](O)(O3)C(=O)C(=O)N3CCCC[C@H]3C(=O)O2)C[C@H]1OC [I-57, (1R,9S,12S,15R,16E,18R,19R,21R,23S,24E,26E,28E,30S,32S,35R)-1,18-dihydroxy-19-methoxy-12-[(1R)-2-[(1S,3R,4R)-3-methoxy-4-(2-methoxyethoxy)cyclohexyl]-1-methyl-ethyl]-15,17,21,23,29,35-hexamethyl-30-(pyrazin-2-ylmethoxy)-11,36-dioxa-4-azatricyclo[30.3.1.0^4,9]hexatriaconta-16,24,26,28-tetraene-2,3,10,14,20-pentone] | – | – | Yes | – |
| CO[C@@H]1C[C@H](C[C@@H](C)[C@@H]2CC(=O)[C@H](C)/C=C(\C)[C@@H](O)[C@@H](OC)C(=O)[C@H](C)C[C@H](C)/C=C/C=C/C=C(\C)[C@@H](OCc3cnccn3)C[C@@H]3CC[C@@H](C)[C@@](O)(O3)C(=O)C(=O)N3CCCC[C@H]3C(=O)O2)CC[C@H]1OCCO [I-59, (1R,9S,12S,15R,16E,18R,19R,21R,23S,24E,26E,28E,30S,32S,35R)-1,18-dihydroxy-12-[(1R)-2-[(1S,3R,4R)-4-(2-hydroxyethoxy)-3-methoxy-cyclohexyl]-1-methyl-ethyl]-19-methoxy-15,17,21,23,29,35-hexamethyl-30-(pyrazin-2-ylmethoxy)-11,36-dioxa-4-azatricyclo[30.3.1.0^4,9]hexatriaconta-16,24,26,28-tetraene-2,3,10,14,20-pentone] | – | – | Yes | – |
| CO[C@@H]1C[C@H](C[C@@H](C)[C@@H]2CC(=O)[C@H](C)/C=C(\C)[C@@H](O)[C@@H](OC)C(=O)[C@H](C)C[C@H](C)/C=C/C=C/C=C(\C)[C@H](OCCOC3COC3)C[C@@H]3CC[C@@H](C)[C@@](O)(O3)C(=O)C(=O)N3CCCC[C@H]3C(=O)O2)CC[C@H]1OC(=O)NCCN1CCOCC1 [I-20, [(42S,44R,46R)-4-[(2R)-2-[(27E,29E,31E,32E,38R,39S,40R,41R,43S,45S,47R,48S,50R,51R,61R)-50,61-dihydroxy-51-methoxy-38,39,40,41,52,53-hexamethyl-47-[2-(oxetan-3-yloxy)ethoxy]-54,55,56,57,58-pentaoxo-75,76-dioxa-64-azatricyclohexatriaconta-27,29,31(52),32(53)-tetraen-48-yl]propyl]-46-methoxy-44-cyclohexyl] N-(2-morpholinoethyl)carbamate] | 1 to 10 | ≥ 1000 | – | Yes |
| CO[C@@H]1/C(C)=C/[C@@H](C)C(=O)C[C@@H]([C@H](C)C[C@@H]2CC[C@@H](O)[C@H](OC)C2)OC(=O)[C@@H]2CCCCN2C(=O)C(=O)[C@]2(O)O[C@@H](CC[C@H]2C)CC(OCCOC2COC2)/C(C)=C/C=C/C=C/[C@@H](C)C[C@@H](C)C(=O)[C@@H]1OC (stereo partly drawn) [I-11, (3S,6R,7E,9R,10R,12R,14S,15E,17E,19E,23S,26R,27R,34aS)-27-hydroxy-3-((R)-1-((1S,3R,4R)-4-hydroxy-3-methoxycyclohexyl)propan-2-yl)-9,10-dimethoxy-6,8,12,14,20,26-hexamethyl-21-(2-(oxetan-3-yloxy)ethoxy)-9,10,12,13,14,21,22,23,24,25,26,27,32,33,34,34a-hexadecahydro-3H-23,27-epoxypyrido[2,1-c][1]oxa[4]azacyclohentriacontine-1,5,11,28,29(4H,6H,31H)-pentaone] | 10 to 100 | ≥ 1000 | – | Yes |

Further lines, with some results ahead:

| IC50 [2] [nM] | IC50 [3] [nM] | Compound | mTORC1 selective @ 24 hrs [1] | mTORC1 selective @ 90 min (mTORC1 over mTORC2) |
| --- | --- | --- | --- | --- |
| 1 to 10 | ≥ 1000 | CO[C@@H]1C[C@H](C[C@@H](C)[C@@H]2CC(=O)[C@H](C)/C=C(\C)[C@@H](O)[C@@H](OC)C(=O)[C@H](C)C[C@H](C)/C=C/C=C/C=C(\C)C(OCCOC3COC3)C[C@@H]3CC[C@@H](C)[C@@](O)(O3)C(=O)C(=O)N3CCCC[C@H]3C(=O)O2)CC[C@H]1OCCCN1CC2(COC2)C1 (stereo partly drawn) [I-91, (27E,29E,31E,32E,39R,40S,41R,42R,44S,46S,49S,51R,52R,62R)-51,62-dihydroxy-52-methoxy-49-[(1R)-2-[(1S,3R,4R)-3-methoxy-4-[3-(2-oxa-6-azaspiro[3.3]heptan-6-yl)propoxy]cyclohexyl]-1-methyl-ethyl]-39,40,41,42,53,54-hexamethyl-48-[2-(oxetan-3-yloxy)ethoxy]-74,75-dioxa-63-azatricyclohexatriaconta-27,29,31(53),32(54)-tetraene-55,56,57,58,59-pentone] | – | Yes |
| 10 to 100 | ≥ 1000 | CO[C@@H]1C[C@H](C[C@@H](C)[C@@H]2CC(=O)[C@H](C)/C=C(\C)[C@@H](O)[C@@H](OC)C(=O)[C@H](C)C[C@H](C)/C=C/C=C/C=C(\C)[C@H](OCC3COCCO3)C[C@@H]3CC[C@@H](C)[C@@](O)(O3)C(=O)C(=O)N3CCCC[C@H]3C(=O)O2)CC[C@H]1OCCCO (stereo partly drawn) [I-92, (24E,26E,28E,29E,35R,36S,37R,38R,40S,42S,44R,45S,47R,48R,57R)-44-(1,4-dioxan-2-ylmethoxy)-47,57-dihydroxy-45-[(1R)-2-[(1S,3R,4R)-4-(3-hydroxypropoxy)-3-methoxy-cyclohexyl]-1-methyl-ethyl]-48-methoxy-35,36,37,38,49,50-hexamethyl-69,70-dioxa-58-azatricyclohexatriaconta-24,26,28(49),29(50)-tetraene-51,52,53,54,55-pentone] | – | Yes |
| 1 to 10 | ≥ 1000 | CO[C@@H]1C[C@H](C[C@@H](C)[C@@H]2CC(=O)[C@H](C)/C=C(\C)[C@@H](O)[C@@H](OC)C(=O)[C@H](C)C[C@H](C)/C=C/C=C/C=C(\C)[C@@H](OCC3COCCO3)C[C@@H]3CC[C@@H](C)[C@@](O)(O3)C(=O)C(=O)N3CCCC[C@H]3C(=O)O2)CC[C@H]1OC(=O)NCCN1CCOCC1 (stereo partly drawn) [I-103, [(42S,44R,46R)-4-[(2R)-2-[(28E,30E,32E,33E,38R,39S,40R,41R,43S,45S,47S,48S,50R,51R,61R)-47-(1,4-dioxan-2-ylmethoxy)-50,61-dihydroxy-51-methoxy-38,39,40,41,52,53-hexamethyl-54,55,56,57,58-pentaoxo-76,77-dioxa-64-azatricyclohexatriaconta-28,30,32(52),33(53)-tetraen-48-yl]propyl]-46-methoxy-44-cyclohexyl] N-(2-morpholinoethyl)carbamate] | – | Yes |
| 1 to 10 | ≥ 1000 | CO[C@@H]1C[C@H](C[C@@H](C)[C@@H]2CC(=O)[C@H](C)/C=C(\C)[C@@H](O)[C@@H](OC)C(=O)[C@H](C)C[C@H](C)/C=C/C=C/C=C(\C)[C@H](OC[C@@H]3COCCO3)C[C@@H]3CC[C@@H](C)[C@@](O)(O3)C(=O)C(=O)N3CCCC[C@H]3C(=O)O2)CC[C@H]1OCCO [I-84, (1R,9S,12S,15R,16E,18R,19R,21R,23S,24E,26E,28E,30R,32S,35R)-30-[[(2S)-1,4-dioxan-2-yl]methoxy]-1,18-dihydroxy-12-[(1R)-2-[(1S,3R,4R)-4-(2-hydroxyethoxy)-3-methoxy-cyclohexyl]-1-methyl-ethyl]-19-methoxy-15,17,21,23,29,35-hexamethyl-11,36-dioxa-4-azatricyclo[30.3.1.04,9]hexatriaconta-16,24,26,28-tetraene-2,3,10,14,20-pentone] | – | Yes |
